Earlier results on one substance are cited in EP0879035B1, “BISMUTH-CONTAINING COMPOSITIONS IN TOPICAL DOSAGE FORMS” (Josman Laboratories, Inc., priority 1995, dated 1997).

For data set [1] the following is noted: in vivo.
The conditions of data set [2]: rats treated for three months; 160, 320, and 640 mg/kg body weight.
The conditions of data set [3]: dogs treated for six months; 160, 320, and 640 mg/kg body weight.
In data set [4] the test system is H. Pylori. As to conditions: against H. Pylori.

Read-outs that look alike come from different tables or passages of the source.

For “1,2,3-PROPANETRICARBONIC ACID, 2-HYDROXY, BISMUTH(3T)POTASSIUM [CBS]”, in data set [1], the “steady-state blood levels unlikely to cause any neurotoxicity” value is 50-100. Moreover, in data set [1] (po), the “systemic bioavailability of bismuth” value is on record as 0.16-0.28 % of the administered dose. Moreover, the “toxicity on chronic daily administration” value in data set [2] and in data set [3] was “No toxicity” throughout. In data set [4], the “minimum inhibitory concentration (MIC), range” value is 4 to 32 µg/mL.
